Test results from patent US10654834B2 (Venenum Biodesign, LLC, priority 2016, dated 2020).

Assays:
human TGR5 receptor = target: T1, human TGR5 receptor (Homo sapiens, UniProt Q8TDU6); test: Human TGR5 cAMP production assay (hTGR5-CHO cells, DiscoveRx cAMP XS+ kit); assay type: cell-based; conditions: luminescent cAMP assay, read-out: Human TGR5 Lum. cAMP Activity (EC50)
T1 construct: host or cells: CHO-K1 (hTGR5-CHO)
T1 sequence (Q8TDU6 1-330): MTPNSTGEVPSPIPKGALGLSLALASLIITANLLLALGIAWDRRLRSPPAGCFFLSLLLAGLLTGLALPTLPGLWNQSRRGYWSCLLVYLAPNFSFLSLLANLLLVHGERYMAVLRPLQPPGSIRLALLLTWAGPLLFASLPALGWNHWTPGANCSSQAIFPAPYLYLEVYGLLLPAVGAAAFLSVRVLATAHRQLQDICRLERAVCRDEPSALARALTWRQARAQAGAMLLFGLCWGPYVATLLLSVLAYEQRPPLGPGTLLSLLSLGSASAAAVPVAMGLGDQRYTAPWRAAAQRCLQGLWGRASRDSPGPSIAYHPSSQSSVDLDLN
Procedure, shortened: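 CHO-K1 cells stably expressing hTGR5, in PBS with IBMX and cAMP antibody, treated with half-log compound dilutions for 1 h at room temperature. cAMP measured by enzyme-fragment complementation luminescence after overnight detection; EC50 values reported.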

mouse TGR5 receptor = target: T2, mouse TGR5 receptor (Mus musculus, UniProt Q80SS6); test: Mouse TGR5 HTRF cAMP production assay (HEK293-EBNA cells, Cisbio cAMP HiRange kit); assay type: cell-based; conditions: HEK293-EBNA cells overexpressing mouse TGR5, HTRF cAMP assay
T2 construct: host or cells: HEK293-EBNA (293 c18, ATCC CRL10852)
T2 sequence (Q80SS6 1-329): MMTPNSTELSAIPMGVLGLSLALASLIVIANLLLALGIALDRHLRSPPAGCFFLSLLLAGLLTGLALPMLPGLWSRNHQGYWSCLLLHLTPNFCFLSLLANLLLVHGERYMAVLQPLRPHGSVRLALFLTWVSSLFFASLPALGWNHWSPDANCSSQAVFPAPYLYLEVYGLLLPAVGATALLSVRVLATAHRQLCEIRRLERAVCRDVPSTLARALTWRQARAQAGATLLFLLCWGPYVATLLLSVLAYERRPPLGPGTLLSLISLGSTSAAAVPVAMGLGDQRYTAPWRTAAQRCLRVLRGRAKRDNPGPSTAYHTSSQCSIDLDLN
Procedure, shortened: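 HEK293-EBNA cells stably expressing mouse TGR5 (episomal vector) were suspended in serum-free DMEM with 500 μM IBMX and exposed to 12-point half-log compound dilutions for 1 h at room temperature. cAMP was detected by HTRF (d2-cAMP/anti-cAMP cryptate, 1 h, room temperature), giving EC50 from duplicates.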

## N#Cc1ccc(CCNC(=O)[C@@H]2CCN2c2cc(N3CCC(CCNc4c(NCCS(=O)(=O)O)c(=O)c4=O)CC3)nc(C(F)(F)F)n2)cc1 [Compound 297, (S)-2-((2-((2-(1-(6-(2-((4-cyanophenethyl)carbamoyl)azetidin-1-yl)-2-(trifluoromethyl)pyrimidin-4-yl)piperidin-4-yl)ethyl)amino)-3,4-dioxocyclobut-1-en-1-yl)amino)ethanesulfonic acid]
Human TGR5 receptor
  EC50: < 100 nM
Mouse TGR5 receptor
  EC50: < 100 nM

## N#Cc1ccc(CCNC(=O)[C@@H]2CCCN2c2cc(N3CCC(OCC#CCS(=O)(=O)O)CC3)nc(C(F)(F)F)n2)cc1 [Compound 134, (S)-4-((1-(6-(2-((4-cyanophenethyl)carbamoyl)pyrrolidin-1-yl)-2-(trifluoromethyl)pyrimidin-4-yl)piperidin-4-yl)oxy)but-2-yne-1-sulfonic acid]
Human TGR5 receptor
  EC50: < 100 nM
Mouse TGR5 receptor
  EC50: < 100 nM

## N#Cc1ccc(CCNC(=O)[C@@H]2CCCN2c2cc(N3CCC(CCCC(=O)NCCS(=O)(=O)NCC(=O)O)CC3)nc(C(F)(F)F)n2)cc1 [Compound 115, (S)-2-(2-(4-(1-(6-(2-((4-cyanophenethyl)carbamoyl)pyrrolidin-1-yl)-2-(trifluoromethyl)pyrimidin-4-yl)piperidin-4-yl)butanamido)-ethylsulfonamido)acetic acid]
Human TGR5 receptor
  EC50: < 100 nM
Mouse TGR5 receptor
  EC50: < 100 nM

## N#Cc1ccc(CCNC(=O)[C@@H]2CCCN2c2cc(N3CCC(CCCNC(=O)NCCS(N)(=O)=O)CC3)nc(C(F)(F)F)n2)cc1 [Compound 120, (S)-N-(4-cyanophenethyl)-1-(6-(4-(3-(3-(2-sulfamoylethyl)ureido)propyl)piperidin-1-yl)-2-(trifluoromethyl)pyrimidin-4-yl)pyrrolidine-2-carboxamide]
Human TGR5 receptor
  EC50: < 100 nM
Mouse TGR5 receptor
  EC50: < 100 nM

## N#Cc1ccc(CCNC(=O)[C@@H]2CCN2c2cc(N3CCC(CCNC(=O)NCCOCCNC(=O)NCCC(=O)O)CC3)nc(C(F)(F)F)n2)cc1 [Compound 360, (S)-1-(1-(6-(2-((4-cyanophenethyl)carbamoyl)azetidin-1-yl)-2-(trifluoromethyl)pyrimidin-4-yl)piperidin-4-yl)-4,12-dioxo-8-oxa-3,5,11,13-tetraazahexadecan-16-oic acid]
Human TGR5 receptor
  EC50: < 100 nM
Mouse TGR5 receptor
  EC50: < 100 nM

## N[C@@H](CS(=O)(=O)O)C(=O)NCCC1CCN(c2cc(N3CC[C@H]3C(=O)NCCc3ccc(C(F)(F)F)cc3)nc(C(F)(F)F)n2)CC1 [Compound 278, (R)-2-amino-3-oxo-3-((2-(1-(2-(trifluoromethyl)-6-((S)-2-((4-(trifluoromethyl)-phenethyl)carbamoyl)azetidin-1-yl)pyrimidin-4-yl)piperidin-4-yl)ethyl)amino)-propane-1-sulfonic acid]
Human TGR5 receptor
  EC50: < 100 nM
Mouse TGR5 receptor
  EC50: < 100 nM

## COc1cc(C(F)(F)F)ccc1CCNC(=O)[C@@H]1CCCN1c1cc(N2CCC(CCCC(=O)NCCS(=O)(=O)O)CC2)nc(C(F)(F)F)n1 [Compound 57, (S)-2-(4-(1-(6-(2-((2-methoxy-4-(trifluoromethyl)phenethyl)carbamoyl)-pyrrolidin-1-yl)-2-(trifluoromethyl)-pyrimidin-4-yl)piperidin-4-yl)butanamido)ethanesulfonic acid]
Human TGR5 receptor
  EC50: < 100 nM
Mouse TGR5 receptor
  EC50: < 100 nM

## O=C(O)CCC1CCN(c2cc(N3CC[C@H]3C(=O)NCCc3ccc(C(F)(F)F)cc3)nc(C(F)(F)F)n2)CC1 [Compound 232, (S)-3-(1-(2-(trifluoromethyl)-6-(2-((4-(trifluoromethyl)phenethyl)carbamoyl)azetidin-1-yl)pyrimidin-4-yl)piperidin-4-yl)propanoic acid]
Human TGR5 receptor
  EC50: < 100 nM
Mouse TGR5 receptor
  EC50: < 100 nM

## N#Cc1ccc(CCNC(=O)[C@@H]2CCN2c2cc(N3CCC(CCNC(=O)NCCS(N)(=O)=O)CC3)nc(C(F)(F)F)n2)cc1 [Compound 269, (S)—N-(4-cyanophenethyl)-1-(6-(4-(2-(3-(2-sulfamoylethyl)ureido)ethyl)piperidin-1-yl)-2-(trifluoromethyl)pyrimidin-4-yl)azetidine-2-carboxamide]
Human TGR5 receptor
  EC50: < 100 nM
Mouse TGR5 receptor
  EC50: < 100 nM

## N#Cc1ccc(CCNC(=O)[C@@H]2CCCN2c2cc(N3CCC(CCCC(=O)NCCNC(=N)N)CC3)nc(C(F)(F)F)n2)cc1 [Compound 128, (S)-N-(4-cyanophenethyl)-1-(6-(4-(4-((2-guanidinoethyl)amino)-4-oxobutyl)piperidin-1-yl)-2-(trifluoromethyl)pyrimidin-4-yl)pyrrolidine-2-carboxamide]
Human TGR5 receptor
  EC50: < 100 nM
Mouse TGR5 receptor
  EC50: < 100 nM

## O=C(O)CCCC1CCN(c2cc(N3CCC[C@H]3C(=O)NCCc3ccc(C(F)(F)F)cc3)nc(C(F)(F)F)n2)CC1 [Compound 9]
Human TGR5 receptor
  EC50: < 100 nM
Mouse TGR5 receptor
  EC50: < 100 nM

## N#Cc1ccc(CCNC(=O)[C@@H]2CCN2c2cc(N3CCC(CCO)CC3)nc(C(F)(F)F)n2)cc1 [Compound 223, (S)-N-(4-cyanophenethyl)-1-(6-(4-(2-hydroxyethyl)piperidin-1-yl)-2-(trifluoromethyl)pyrimidin-4-yl)azetidine-2-carboxamide]
Human TGR5 receptor
  EC50: < 100 nM
Mouse TGR5 receptor
  EC50: < 100 nM

## N#Cc1ccc(CCNC(=O)[C@@H]2CCCN2c2cc(N3CCC(CCNC(=N)N)CC3)nc(C(F)(F)F)n2)cc1 [Compound 126, (S)—N-(4-cyanophenethyl)-1-(6-(4-(2-guanidinoethyl)piperidin-1-yl)-2-(trifluoromethyl)pyrimidin-4-yl)pyrrolidine-2-carboxamide]
Human TGR5 receptor
  EC50: < 100 nM
Mouse TGR5 receptor
  EC50: < 100 nM

## N#Cc1ccc(CCNC(=O)[C@@H]2CCCN2c2cc(N3CCC(CCC(=O)O)CC3)nc(C(F)(F)F)n2)cc1 [Compound 28]
Human TGR5 receptor
  EC50: 100 to 999 nM
Mouse TGR5 receptor
  EC50: < 100 nM

## O=C(CCCC1CCN(c2cc(N3CCC[C@H]3C(=O)NCCc3ccc(C(F)(F)F)cc3)nc(C(F)(F)F)n2)CC1)NCCS(=O)(=O)O [Compound 58, (S)-2-(4-(1-(2-(trifluoromethyl)-6-(2-((4-(trifluoromethyl)phenethyl)-carbamoyl)-pyrrolidin-1-yl)-pyrimidin-4-yl)piperidin-4-yl)butanamido)ethanesulfonic acid]
Human TGR5 receptor
  EC50: < 100 nM
Mouse TGR5 receptor
  EC50: < 100 nM

## N#Cc1ccc(CCNC(=O)[C@@H]2CCCN2c2cc(N3CCC(CCNS(=O)(=O)CCNC(=O)[C@@H](N)CS(=O)(=O)O)CC3)nc(C(F)(F)F)n2)cc1 [Compound 125, (R)-2-amino-3-((2-(N-(2-(1-(6-((S)-2-((4-cyanophenethyl)carbamoyl)-pyrrolidin-1-yl)-2-(trifluoromethyl)-pyrimidin-4-yl)piperidin-4-yl)ethyl)sulfamoyl)ethyl)amino)-3-oxopropane-1-sulfonic acid]
Human TGR5 receptor
  EC50: < 100 nM
Mouse TGR5 receptor
  EC50: < 100 nM

## N#Cc1ccc(CCNC(=O)[C@@H]2CCN2c2cc(N3CCC(CCCC(=O)NCS(=O)(=O)O)CC3)nc(C(F)(F)F)n2)cc1 [Compound 250, (S)-(4-(1-(6-(2-((4-cyanophenethyl)carbamoyl)azetidin-1-yl)-2-(trifluoromethyl)pyrimidin-4-yl)piperidin-4-yl)butanamido)methanesulfonic acid]
Human TGR5 receptor
  EC50: < 100 nM
Mouse TGR5 receptor
  EC50: < 100 nM

## N#Cc1ccc(CCNC(=O)[C@@H]2CCCN2c2cc(N3CCC(CCNc4c(NCCS(=O)(=O)O)c(=O)c4=O)CC3)nc(C(F)(F)F)n2)cc1 [Compound 367, (S)-2-((2-((2-(1-(6-(2-((4-cyanophenethyl)carbamoyl)pyrrolidin-1-yl)-2-(trifluoromethyl)pyrimidin-4-yl)piperidin-4-yl)ethyl)amino)-3,4-dioxocyclobut-1-en-1-yl)amino)ethanesulfonic acid]
Human TGR5 receptor
  EC50: < 100 nM
Mouse TGR5 receptor
  EC50: < 100 nM

## O=C(CCC1CCN(c2cc(N3CC[C@H]3C(=O)NCCc3ccc(C(F)(F)F)cc3)nc(C(F)(F)F)n2)CC1)NCS(=O)(=O)O [Compound 253, (S)-(3-(1-(2-(trifluoromethyl)-6-(2-((4-(trifluoromethyl)phenethyl)-carbamoyl)azetidin-1-yl)pyrimidin-4-yl)piperidin-4-yl)propanamido)-methanesulfonic acid]
Human TGR5 receptor
  EC50: < 100 nM
Mouse TGR5 receptor
  EC50: < 100 nM

## N#Cc1ccc(CCNC(=O)[C@@H]2CCN2c2cc(N3CCC(CCCC(=O)NC[C@@H](O)CO)CC3)nc(C(F)(F)F)n2)cc1 [Compound 261, (S)-N-(4-cyanophenethyl)-1-(6-(4-(4-(((R)-2,3-dihydroxypropyl)amino)-4-oxobutyl)piperidin-1-yl)-2-(trifluoromethyl)pyrimidin-4-yl)azetidine-2-carboxamide]
Human TGR5 receptor
  EC50: < 100 nM
Mouse TGR5 receptor
  EC50: < 100 nM

## N#Cc1ccc(CCNC(=O)[C@@H]2CCCN2c2cc(N3CCC(CCCC(=O)NCCC(=O)O)CC3)nc(C(F)(F)F)n2)cc1 [Compound 104, (S)-3-(4-(1-(6-(2-((4-cyanophenethyl)carbamoyl)pyrrolidin-1-yl)-2-(trifluoromethyl)pyrimidin-4-yl)-piperidin-4-yl)butanamido)-propanoic acid]
Human TGR5 receptor
  EC50: < 100 nM
Mouse TGR5 receptor
  EC50: < 100 nM
